Laboratory results: US20250257060A1, “OXADIAZOLE COMPOUND, PHARMACEUTICAL COMPOSITION COMPRISING SAME, AND USE THEREOF” (SUZHOU GENHOUSE BIO CO., LTD., priority 2022, published 2025)
Read-outs that look alike come from different tables or passages of the source.

Columns and labels:
[1] = Pharmacokinetic test in mice (IV and PO); format: in vivo, BALB/c mice; conditions: for MRT inf: read-out: MRT(0-∞)
Description: In this example, the pharmacokinetic behavior of the compounds after intravenous injection (IV) and intragastric (PO) administration in BALB/c mice was tested.
On the day of administration, mice were weighed for actual body weight and the administration volume was calculated. Each compound was tested in two groups with 3 mice in each group, one group administered by single intravenous injection and the other group of mice by single intragastric administration. Whole blood samples were collected via the orbit at prescribed time points (0.25 h, 0.5 h, 1 h, 2 h, 4 h, 8 h, and 24 h after administration). After blood sample collection, the samples were immediately transferred to labeled commercial sample tubes containing K2-EDTA (0.85-1.15 mg), followed by centrifugation (3200×g, 4° C., 10 min) and plasma collection. The plasma was transferred to a pre-cooled centrifuge tube, frozen in dry ice, and stored in an ultra-low temperature freezer at −60° C. or lower until the LC-MS/MS analysis.
Plasma concentrations were determined by a LC-MS/MS method. Plasma drug concentration data for compounds 1 and 2 were processed in a non-compartmental model using WinNonlin Version 6.3 (Pharsight, Mountain View, CA) pharmacokinetic software. The relevant pharmacokinetic parameters were calculated by a linear logarithmic trapezoid method.

[2] = tested on: acetylation level of α-tubulin in HCT116 cells; experiment: Assay on acetylation level of α-tubulin, HCT116 cells; format: cell-based; conditions: Homo sapiens, HCT-116, 6 h
Description: A375/HCT116/HCC827 cells at a logarithmic growth phase were taken, digested with a […] (trypsin), centrifuged, counted, and plated in a 96-well plate at an appropriate cell density (30,000 cells/well) at 100 µL/well, and an appropriate amount of PBS was added around the plate for water sealing. The next day, the cells were treated with the compounds at different concentrations (starting at 100 μM, 5-fold dilution, 9 concentration gradients). After 6 h, the medium was pipetted out and the cells were washed twice with 100 μL of PBST. The cells were then immobilized in 4% paraformaldehyde, and the plate was incubated at room temperature for 20 min. The stationary liquid was discarded and the cells were washed with PBST. 150 μL of special blocking buffer (containing 1% Triton-100) was added to each well for blocking at room temperature for 2 h, and the plate was washed with PBS to remove excess blocking buffer. α-tubulin (DM1A) mouse mAb and acetyl-α-tubulin (Lys40) (D20G3) XP rabbit mAb were diluted at a 1:2000 ratio with a blocking buffer containing 0.033% Triton-100. The dilutions were added to the 96-well plate and the plate was incubated overnight at 4° C. Meanwhile, a blank control group was set. The next day, the plate was washed twice with PBST. Secondary anti-mouse IgG (H+L) (DyLight™ 680 conjugate) and anti-rabbit IgG (H+L) (DyLight™ 800 conjugate) were diluted at a 1:2000 ratio with a blocking buffer containing 0.033% Triton-100. The dilutions were added to a 96-well plate and the plate was incubated at room temperature for 2 h. The plate was washed twice with PBST and once with PBS. Fluorescence signals at 700 nm and 800 nm were detected with a Li-COR Odyssey two-color near-infrared laser imager.

[3] = Brain-to-blood drug concentration ratio of mice; format: in vivo; conditions: mouse, 5 mg/kg PO
Description: On the day of administration, mice were weighed for actual body weight and the administration volume was calculated. In each group of 9 mice, the compound was administered by single intravenous (IV) injection or intragastric (PO) administration. Whole blood samples were collected via the orbit at prescribed time points. After blood sample collection, the samples were immediately transferred to labeled commercial sample tubes containing K2-EDTA (0.85-1.15 mg), followed by centrifugation (3200×g, 4° C., 10 min) and plasma collection. The plasma was transferred to a pre-cooled centrifuge tube, frozen in dry ice, and stored in an ultra-low temperature freezer at −60° C. or lower until the LC-MS/MS analysis. 20 μL of a plasma sample or brain tissue homogenate was taken and 80 μL of an internal standard solution (50 ng/mL solution of propafenone in acetonitrile) was added. The plate was sealed with a film sealer at 165° C., shaken on a micro oscillator (maximum vibration speed) for 10 min, and centrifuged at 4000 rpm for 20 min using a low-speed benchtop centrifuge, 10 μL of supernatant was transferred and 90 μL of acetonitrile was added. The mixture was vortexed and mixed well, and then the plate was sealed with the film sealer at 165° C. After the mixture was vortexed and mixed well, 1 μL of supernatant was taken for LC-MS/MS analysis. Plasma drug concentration data for the compounds were processed in a non-compartmental model using WinNonlin Version 6.3 (Pharsight, Mountain View, CA) pharmacokinetic software. The relevant pharmacokinetic parameters were calculated by a linear logarithmic trapezoid method.
Data processing: brain-to-blood drug concentration ratio of mice at the same time point=drug concentration in brain tissue/drug concentration in plasma

[4] = BALB/c, mouse, plasma, mice, IV 1 mg/kg
[5] = BALB/c, mouse, plasma, mice, PO 5 mg/kg

O=C(N[C@@H]1COCC[C@H]1N1Cc2ccc(-c3nnc(C(F)F)o3)cc2S1(=O)=O)C(F)F [Compound 13]
Cmax ([1]; BALB/c, mouse, plasma, po, 5 mg/kg, read-out: C0/Cmax): 7.13 µM
AUC(0-inf) [1, 4]: 4.53 µM·h
AUC(0-t) [1, 4]: 4.42 µM·h
Cmax ([1]; BALB/c, mouse, plasma, mice, IV 1 mg/kg (C0)): 3.05 µM
MRT inf [1, 4]: 1.85 h
Vd ([1]; BALB/c, mouse, plasma, mice, IV 1 mg/kg, read-out: Vz): 1.05 L/kg
AUC(0-inf) [1, 5]: 22 µM·h
AUC(0-t) [1, 5]: 21.4 µM·h
Tmax [1, 5]: 0.5 h
MRT inf [1, 5]: 2.63 h
CLz ([1]; mice, IV 1 mg/kg): 8 mL/min/kg
t½z ([1]; mice, IV 1 mg/kg): 1.52 h
F ([1]; mice, PO 5 mg/kg): 97.0%
t½z ([1]; mice, PO 5 mg/kg): 1.52 h
EC50 [2]: 133 nM
concentration at 1 h ([3]; brain, 1 h, read-out: Brain drug concentration): 218 ng/mL
concentration at 2 h ([3]; brain, 2 h, read-out: Brain drug concentration): 174 ng/mL
Kp at 1 h ([3]; brain/plasma, 1 h): 0.07
Kp at 2 h ([3]; brain/plasma, 2 h): 0.09
concentration at 1 h ([3]; plasma, 1 h, read-out: Blood drug concentration): 2950 ng/mL
concentration at 2 h ([3]; plasma, 2 h, read-out: Blood drug concentration): 1780 ng/mL

O=C(N[C@@H]1CCOC[C@H]1N1Cc2ccc(-c3nnc(C(F)F)o3)cc2S1(=O)=O)C(F)(F)C(F)(F)F [Compound 66]
EC50 [2]: 322 nM
